Patent publication USRE48461E1, “Modulation of androgen receptor expression” (Ionis Pharmaceuticals, Inc., priority 2012, dated 2021)

Assays:
Type in all cases: cell-based, human
C4-2B cells = assay: C4-2B cell proliferation, ASO in combination with MDV3100 (Example 21); details: Homo sapiens, read-out: inhibited proliferation, MDV3100 with control oligonucleotide ISIS 549148
Procedure: (§1) C4-2B cells were plated at 1,000 cells per well. […] ISIS 549148 was included as a negative control. […] After a treatment period of 5 days, the proliferative capacity of the cancer cells was measured with CellTiter 96® AQueous One Solution Cell Proliferation kit (Promega), following the manufacturer's instructions. […]

AR mRNA = assay: AR RNA expression in LNCaP cells (complete, CSS, CSS+DHT medium); details: for Percent expression of AR in LNCaP cells cultured in CSS + DHT medium: CSS + DHT (1 nM) medium; for Percent expression of AR in LNCaP cells cultured in CSS + DHT medium / Percent expression of AR in LNCaP cells cultured in CSS medium: 48 hrs; for Percent expression of AR in LNCaP cells cultured in complete medium: 48 hours
Procedure: Cells were plated at 1,000 cells per well. […] After an incubation period of 48 hours, RNA levels of AR, PSA and TMPRSS2 were measured.
Cells were plated at 2,000 cells per well and cultured in phenol red-free RPMI supplemented with 5% charcoal stripped serum (Gibco) media for 16 hours. […] After an incubation period of 4 hrs, DHT was added to the medium to a final concentration of 1 nM as indicated. RNAs were collected 48 hrs later and levels of AR, PSA and TMPRSS2 were measured.

LNCaP cells = assay: LNCaP cell proliferation, ASO in combination with MDV3100 (Example 20); details: Homo sapiens, LNCaP, read-out: inhibited proliferation, MDV3100 with control oligonucleotide ISIS 549148
Procedure: as §1, with “LNCaP” for “C4-2B”, “One or CellTiter-Glo®” for “One”

C4-2 cells = assay: C4-2 cell proliferation (complete or CSS+DHT medium); details: 5 days; for Proliferation (% untreated control): C4-2 cells
Procedure: After a treatment period of 5 days in complete medium or CSS+1 nM DHT medium, the proliferative capacity of the cancer cells was measured with using CellTiter 96® AQueous One Solution or CellTiter-Glo® Cell Proliferation kit (Promega), following the manufacturer's instructions. […] The proliferative capacity of cells cultured in CSS medium without DHT is 17% of untreated control levels.

[1] = test system: prostate-specific antigen (PSA) mRNA; assay: Time-course PSA expression in C4-2B cells
Procedure: C4-2B cells were plated at 1,000 cells per well in complete medium. […] ISIS 549148 was included as a negative control. […] After a treatment period of 8 hours, 24 hours, and 48 hours, AR expression was measured with primer probe set hAR-LTS00943. Results are presented in Tables 70-72 as percent expression of AR, relative to non-treated cells.
Expression analysis of prostate-specific antigen (PSA) and TMPRSS2 were also analyzed. Results are presented in Tables 73-75 as percent inhibition of PSA expression and Tables 76-78 as percent inhibition of TMPRSS2 expression, relative to non-treated cells.

In the case of `CNC(=O)c1ccc(N2C(=S)N(c3ccc(C#N)c(C(F)(F)F)c3)C(=O)C2(C)C)cc1F` [MDV3100, 4-(3-(4-cyano-3-(trifluoromethyl)phenyl)-5,5-dimethyl-4-oxo-2-thioxoimidazolidin-1-yl)-2-fluoro-N-methylbenzamide, reference compound], the inhibition at 0.08 µM (C4-2B cells) is reported as 0%, the inhibition at 0.4 µM (C4-2B cells) is reported as 6% and the “Percent expression of AR in LNCaP cells cultured in CSS + DHT medium” value (“Percent expression of AR … in CSS + DHT medium” below) (AR mRNA; 0.04 μM) is reported as 107%. The “Percent expression of AR … in CSS + DHT medium” value (AR mRNA; 0.2 μM) was 121%, the “Percent expression of AR … in CSS + DHT medium” value (AR mRNA; 1 μM) was 110% and the “Percent expression of AR … in CSS + DHT medium” value (AR mRNA; 5.0 μM) was 113%. For the same molecule, the “Percent expression of AR in LNCaP cells cultured in CSS medium” value (shortened to “Percent expression of AR … in CSS medium”) (AR mRNA; 0.04 μM) was 91%, the “Percent expression of AR … in CSS medium” value (AR mRNA; 0.2 μM) was 67% and the “Percent expression of AR … in CSS medium” value (AR mRNA; 1 μM) was 64%. For the same molecule, the “Percent expression of AR … in CSS medium” value (AR mRNA; 5.0 μM) was 77%, the “Percent expression of AR in LNCaP cells cultured in complete medium” value (shortened to “Percent expression of AR … in complete medium”) (AR mRNA; 0.2 μM) was 133% and the “Percent expression of AR … in complete medium” value (AR mRNA; 1 μM) was 121%. For the same molecule, the “Percent expression of AR … in complete medium” value (AR mRNA; 5.0 μM) was 139%, the inhibition at 0.08 µM (LNCaP cells) was 7% and the “Proliferation (% untreated control)” value (C4-2 cells; CSS + DHT medium, 0.04 μM) was 122 % untreated control. For the same molecule, the “Proliferation (% untreated control)” value (C4-2 cells; CSS + DHT medium, 0.2 μM) was 124 % untreated control, the “Proliferation (% untreated control)” value (C4-2 cells; CSS + DHT medium, 1 μM) was 87 % untreated control and the “Proliferation (% untreated control)” value (C4-2 cells; CSS + DHT medium, 5.0 μM) was 22 % untreated control. For the same molecule, the “Proliferation (% untreated control)” value (C4-2 cells; complete medium, 0.04 μM) was 105 % untreated control, the “Proliferation (% untreated control)” value (C4-2 cells; complete medium, 0.2 μM) was 108 % untreated control and the “Proliferation (% untreated control)” value (C4-2 cells; complete medium, 1 μM) was 71 % untreated control. For the same molecule, the “Proliferation (% untreated control)” value (C4-2 cells; complete medium, 5.0 μM) was 67 % untreated control, the “proliferation of C4-2 cells” value (C4-2 cells; complete medium or CSS+1 nM DHT) was “reduced proliferation of the cells in a dose dependent manner compared to the control” and the “Percent inhibition of PSA expression compared to the control group in 8 hours” value (shortened to “Percent inhibition … in 8 hours”) ([1]; 0.04 μM) was 0%. The “Percent inhibition of PSA expression compared to the control group in 24 hours” value (from here on “Percent inhibition … in 24 hours”) ([1]; 0.04 μM) was 24%, the “Percent inhibition of PSA expression compared to the control group in 48 hours” value (from here on “Percent inhibition … in 48 hours”) ([1]; 0.04 μM) was 5% and the “Percent inhibition … in 8 hours” value ([1]; 0.2 μM) was 3%. For the same molecule, the “Percent inhibition … in 24 hours” value ([1]; 0.2 μM) was 24%, the “Percent inhibition … in 48 hours” value ([1]; 0.2 μM) was 5% and the “Percent inhibition … in 8 hours” value ([1]; 1 μM) was 23%. The “Percent inhibition … in 24 hours” value ([1]; 1 μM) was 53%, the “Percent inhibition … in 48 hours” value ([1]; 1 μM) was 32% and the “Percent inhibition … in 8 hours” value ([1]; 5.0 μM) was 33%. For the same molecule, the “Percent inhibition … in 24 hours” value ([1]; 5.0 μM) was 65%, the “Percent inhibition … in 48 hours” value ([1]; 5.0 μM) was 63% and the PSA expression ([1]; time course) was “also reduced downstream gene expressions but not as potently as that with the ISIS oligonucleotides”.
